For 28 molecules, IC50 results are on record in patent publication US10052306B2 (LUC THERAPEUTICS, INC., priority 2013, dated 2018).

For test [1], the target named is NR1/NR2B (Homo sapiens (Human), UniProt Q13224). Kind of test: Cell assay: FDSS Ca2+ influx inhibition in HEK293 cells expressing NR1/NR2B.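 Also: Fluo-8 Ca2+ signal read on Hamamatsu FDSS 6000 after glutamate, glycine and Ca2+ challenge following 10 min compound preincubation, end/baseline fluorescence ratio compared with MK801 control.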 As to conditions: read-out: NR2B NAM IC50.
Sequence of NR1/NR2B (Homo sapiens (Human), UniProt Q13224) (Q13224 27-1484, other chains not shown): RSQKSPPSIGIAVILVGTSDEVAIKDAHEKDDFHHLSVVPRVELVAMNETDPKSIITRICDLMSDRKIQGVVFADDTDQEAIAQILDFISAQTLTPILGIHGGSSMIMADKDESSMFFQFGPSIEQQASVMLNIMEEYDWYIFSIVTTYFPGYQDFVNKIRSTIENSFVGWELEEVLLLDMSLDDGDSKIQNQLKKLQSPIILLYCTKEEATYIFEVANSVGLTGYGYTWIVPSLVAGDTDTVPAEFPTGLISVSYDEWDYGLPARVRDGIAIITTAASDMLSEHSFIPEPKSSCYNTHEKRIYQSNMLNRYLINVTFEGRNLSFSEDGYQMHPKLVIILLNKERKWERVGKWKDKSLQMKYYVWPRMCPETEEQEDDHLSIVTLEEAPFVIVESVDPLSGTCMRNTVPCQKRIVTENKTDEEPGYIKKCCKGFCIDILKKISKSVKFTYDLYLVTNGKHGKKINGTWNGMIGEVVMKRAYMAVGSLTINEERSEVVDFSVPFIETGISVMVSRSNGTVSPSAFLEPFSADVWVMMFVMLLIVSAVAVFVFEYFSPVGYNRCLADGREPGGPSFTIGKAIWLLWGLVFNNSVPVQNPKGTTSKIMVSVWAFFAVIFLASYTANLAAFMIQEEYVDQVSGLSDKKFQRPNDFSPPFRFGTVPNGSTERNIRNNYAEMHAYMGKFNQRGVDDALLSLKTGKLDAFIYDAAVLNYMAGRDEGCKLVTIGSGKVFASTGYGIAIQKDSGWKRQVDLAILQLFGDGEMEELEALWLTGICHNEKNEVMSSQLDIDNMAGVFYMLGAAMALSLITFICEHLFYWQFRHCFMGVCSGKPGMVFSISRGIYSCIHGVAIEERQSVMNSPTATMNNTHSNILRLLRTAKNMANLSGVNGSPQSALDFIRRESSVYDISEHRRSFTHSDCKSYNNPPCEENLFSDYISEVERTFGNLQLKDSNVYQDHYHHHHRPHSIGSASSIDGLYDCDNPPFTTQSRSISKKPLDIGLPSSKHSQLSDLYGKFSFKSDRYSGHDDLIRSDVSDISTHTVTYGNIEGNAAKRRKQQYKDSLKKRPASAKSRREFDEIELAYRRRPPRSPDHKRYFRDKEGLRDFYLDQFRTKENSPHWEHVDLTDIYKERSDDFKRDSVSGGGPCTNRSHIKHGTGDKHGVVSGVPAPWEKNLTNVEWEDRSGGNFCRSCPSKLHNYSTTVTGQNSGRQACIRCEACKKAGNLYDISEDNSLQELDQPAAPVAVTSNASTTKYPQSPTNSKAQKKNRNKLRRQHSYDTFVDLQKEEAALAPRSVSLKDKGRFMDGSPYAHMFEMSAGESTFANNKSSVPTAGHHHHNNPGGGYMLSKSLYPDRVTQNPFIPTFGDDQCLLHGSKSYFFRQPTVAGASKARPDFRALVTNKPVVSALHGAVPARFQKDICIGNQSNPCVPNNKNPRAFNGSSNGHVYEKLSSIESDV
In test [2] the target is NR1/NR2B (Homo sapiens (Human), UniProt Q05586+Q13224). Described as above. Particulars: Binned Activity.
Sequence of NR1/NR2B (Homo sapiens (Human), UniProt Q05586+Q13224) (Q13224 27-1484, other chains not shown): as above
Where [3] appears, read: HEK293 cells expressing NR1/NR2B, Ca2+ influx.
[4] abbreviates: HEK293 cells expressing NR1/NR2B, Ca2+ influx, binned NR2B NAM IC50.

Read-outs that look alike come from different tables or passages of the source.

As to `COc1ccc(C)cc1NC(=O)N1C[C@H]2C[C@@H](c3ccccc3)C[C@H]2C1` [Example 109, N-(2-methoxy-5-methylphenyl)-5-phenyl-octahydrocyclopenta[c] pyrrole-2-carboxamide], the IC50 (commonly the concentration that inhibits the measured activity by half) in test [1] (setting [3]) was 10 µM; in test [2] (setting [4]), greater than 10 µM.

Consider `Cc1ccccc1[C@]1(O)C[C@H]2CN(c3cccc(C(F)(F)F)n3)C[C@H]2C1` [Example 84, 5-(2-methylphenyl)-2-[6-(trifluoromethyl)pyridin-2-yl]-octahydrocyclopenta[c] pyrrol-5-ol], for which the IC50 is 10 µM in test [1] (setting [3]) and greater than 10 µM in test [2] (setting [4]).

Regarding `O=C(CN1C[C@@H]2C[C@@](O)(Cc3ccccc3)C[C@@H]2C1)c1ncc(O)cn1` [Example 202, 2-[(3aR,5R,6aS)-5-benzyl-5-hydroxy-octahydrocyclopenta[c]pyrrol-2-yl]-1-(5-hydroxypyrimidin-2-yl)ethan-1-one], the half-maximal inhibitory concentration (IC50) was 10 µM in test [1] (setting [3]) and greater than 10 µM in test [2] (setting [4]).

`COC(=O)c1ccc(NC(=O)N2C[C@@H]3C[C@@](O)(c4ccccc4)C[C@@H]3C2)cc1` [Example 28, methyl 4-[({5-hydroxy-5-phenyl-octahydrocyclopenta[c]pyrrol-2-yl}carbonyl)amino] benzoate]: the IC50 in test [1] (setting [3]) was 10 µM; in test [2] (setting [4]), greater than 10 µM.

`O=C(COc1ccc(C(=O)CN2C[C@@H]3C[C@@](O)(Cc4ccccc4)C[C@@H]3C2)cc1F)c1ccc(O)c(F)c1` [Example 172, 2-((3aR,5r,6aS)-5-benzyl-5-hydroxyhexahydrocyclo-penta[c]pyrrol-2(1H)-yl)-1-(3-fluoro-4-(2-(3-fluoro-4-hydroxyphenyl)-2-oxoethoxy)phenyl)ethanone]: the figures for the IC50 in test [1] (setting [3]) and in test [2] (setting [4]) were 10 µM and greater than 10 µM, respectively.

Consider `Cc1cccc(-c2ccc(C(=O)CN3C[C@@H]4C[C@@](O)(Cc5ccccc5)C[C@@H]4C3)cc2)c1` [Example 264, 2-((3aR,5r,6aS)-5-benzyl-5-hydroxyhexahydrocyclo-penta[c]pyrrol-2(1H)-yl)-1-(3′-methyl-[1,1′-biphenyl]-4-yl)ethanone], for which the IC50 in test [1] (setting [3]) was 10 µM; in test [2] (setting [4]), greater than 10 µM.

With `O=C(CN1C[C@@H]2CC(O)(CCc3ccccc3)C[C@@H]2C1)c1ccc(-c2cccc(F)c2)cc1` (some centres unmarked) [Example 270, 1-[4-(3-fluorophenyl)phenyl]-2-[5-hydroxy-5-(2-phenylethyl)-octahydrocyclopenta[c]pyrrol-2-yl]ethan-1-one], the IC50 in test [1] (setting [3]) was 10 µM; in test [2] (setting [4]), greater than 10 µM.

Take `O=C(CN1C[C@@H]2C[C@@](O)(Cc3cccc(F)c3F)C[C@@H]2C1)c1ccc(O)cn1` [Example 247, 2-((3aR,5r,6aS)-5-(2,3-difluorobenzyl)-5-hydroxyhexahydrocyclo-penta[c]pyrrol-2(1H)-yl)-1-(5-hydroxypyridin-2-yl)ethanone]: the IC50 was 3.06 µM in test [1] (setting [3]) and 1 to 10 µM in test [2] (setting [4]).

As for `O=C1Cc2cc(C(=O)CN3C[C@@H]4C[C@@](O)(Cc5ccccc5)C[C@@H]4C3)ccc2N1` [Example 147, 5-(2-((3aR,5r,6aS)-5-benzyl-5-hydroxyhexahydrocyclo-penta[c]pyrrol-2(1H)-yl)acetyl)indolin-2-one], the IC50 was 0.352 µM in test [1] (setting [3]) and 0.1 to 1 µM in test [2] (setting [4]).

Turning to `O=C(Nc1cccnc1)N1C[C@H]2C[C@@H](c3ccccc3)C[C@H]2C1` [Example 111, 5-phenyl-N-(pyridin-3-yl)-octahydrocyclopenta[c] pyrrole-2-carboxamide], the half-maximal inhibitory concentration (IC50) in test [1] (setting [3]) was 10 µM; in test [2] (setting [4]), greater than 10 µM.

Turning to `N#Cc1cccc(NC(=O)N2C[C@@H]3C[C@@](O)(c4ccccc4)C[C@@H]3C2)c1` [Example 26, N-(3-cyanophenyl)-5-hydroxy-5-phenyl-octahydrocyclopenta[c] pyrrole-2-carboxmaide], the results for the IC50 in test [1] (setting [3]) and in test [2] (setting [4]) were 10 µM and greater than 10 µM, respectively.

Take `COc1cccc(-c2cccc(C(=O)CN3C[C@@H]4C[C@@](O)(Cc5ccccc5)C[C@@H]4C3)c2)c1` [Example 273, 2-((3aR,5r,6aS)-5-benzyl-5-hydroxyhexahydrocyclo-penta[c]pyrrol-2(1H)-yl)-1-(3′-methoxy-[1,1′-biphenyl]-3-yl)ethanone]: the IC50 is 10 µM in test [1] (setting [3]) and greater than 10 µM in test [2] (setting [4]).

For the molecule `COc1ccc(-c2cccc(C(=O)CN3C[C@@H]4C[C@@](O)(Cc5ccccc5)C[C@@H]4C3)c2)cc1` [Example 263, 2-((3aR,5r,6aS)-5-benzyl-5-hydroxyhexahydrocyclo-penta[c]pyrrol-2(1H)-yl)-1-(4′-methoxy-[1,1′-biphenyl]-3-yl)ethanone], the figures for the IC50 in test [1] (setting [3]) and in test [2] (setting [4]) were 10 µM and greater than 10 µM, respectively.

Consider `Cc1ccccc1[C@]1(O)C[C@H]2CN(C(=O)Nc3ccccc3)C[C@H]2C1` [Example 30, 5-hydroxy-5-(2-methylphenyl)-N-phenyl-octahydrocyclopenta[c] pyrrole-2-carboxamide], for which the IC50 in test [1] is 10 µM; in test [2], greater than 10 µM.

As for `N#Cc1cccc(NC(=O)N2C[C@H]3C[C@@H](c4ccccc4)C[C@H]3C2)c1` [Example 107, N-(3-cyanophenyl)-5-phenyl-octahydrocyclopenta[c] pyrrole-2-carboxamide], the IC50 was 10 µM in test [1] (setting [3]) and greater than 10 µM in test [2] (setting [4]).

As to `O=C(CN1C[C@@H]2C[C@@](O)(Cc3cccs3)C[C@@H]2C1)c1ccc(O)c(F)c1` [Example 220, 1-(3-fluoro-4-hydroxyphenyl)-2-(5-hydroxy-5-(thiophen-2-ylmethyl)hexahydro-cyclopenta[c]pyrrol-2(1H)-yl)ethanone], the IC50 in test [1] (setting [3]) was 0.111 µM; in test [2] (setting [4]), 0.1 to 1 µM.

`O=C(CN1C[C@@H]2C[C@@](O)(Cc3cccc(F)c3F)C[C@@H]2C1)c1ccc(O)cc1` [Example 249, 2-((3aR,5r,6aS)-5-(2,3-difluorobenzyl)-5-hydroxyhexahydrocyclo-penta[c]pyrrol-2(1H)-yl)-1-(4-hydroxyphenyl)ethanone]: the IC50 is 0.11 µM in test [1] (setting [3]) and 0.1 to 1 µM in test [2] (setting [4]).

Take `CC(=O)Nc1ccc(C(=O)CN2C[C@@H]3C[C@@](O)(Cc4ccccc4)C[C@@H]3C2)cc1` [Example 141, N-(4-(2-((3aR,5r,6aS)-5-benzyl-5-hydroxyhexahydrocyclo-penta[c]pyrrol-2(1H)-yl)acetyl)phenyl) acetamide]: the figures for the IC50 in test [1] (setting [3]) and in test [2] (setting [4]) were 10 µM and greater than 10 µM, respectively.

Regarding `O=C(CN1C[C@@H]2C[C@@](O)(Cc3ccccc3)C[C@@H]2C1)c1cccc(-c2ccc(F)cc2)c1` [Example 274, 2-((3aR,5r,6aS)-5-benzyl-5-hydroxyhexahydrocyclo-penta[c]pyrrol-2(1H)-yl)-1-(4′-fluoro-[1,1′-biphenyl]-3-yl)ethanone], the results for the IC50 in test [1] (setting [3]) and in test [2] (setting [4]) were 10 µM and greater than 10 µM, respectively.

Turning to `O=C(CN1C[C@@H]2C[C@@](O)(Cc3ccc(F)cc3)C[C@@H]2C1)c1ccc(O)c(F)c1` [Example 169, 1-(3-fluoro-4-hydroxyphenyl)-2-((3aR,5r,6aS)-5-(4-fluorobenzyl)-5-hydroxyhexahydrocyclo-penta[c]pyrrol-2(1H)-yl)ethanone], the IC50 in test [1] (setting [3]) is 0.117 µM; in test [2] (setting [4]), 0.1 to 1 µM.

On to `O=C(Cc1ccc(O)cc1)CN1C[C@@H]2C[C@@](O)(Cc3ccccc3)C[C@@H]2C1` [Example 145, 1-((3aR,5r,6aS)-5-benzyl-5-hydroxyhexahydrocyclo-penta[c]pyrrol-2(1H)-yl)-3-(4-hydroxyphenyl)propan-2-one], for which the values for the IC50 in test [1] (setting [3]) and in test [2] (setting [4]) were 10 µM and greater than 10 µM, respectively.

In the case of `O=C(CN1C[C@H]2CC(Cc3ccccc3)C[C@H]2C1)c1ccc(O)cc1` (stereo partly drawn) [Example 295, 2-((3aR,6aS)-5-benzylhexahydrocyclo-penta[c]pyrrol-2(1H)-yl)-1-(4-hydroxyphenyl)ethanone], the IC50 in test [1] (setting [3]) is 0.0517 µM; in test [2] (setting [4]) it was less than 0.1 µM.

Regarding `O=C(CN1C[C@H]2C[C@H](Cc3ccccc3)C[C@H]2C1)c1ccc(O)cc1` [Example 305, 2-[(3aR,5R,6aS)-5-benzyl-octahydrocyclopenta[c]pyrrol-2-yl]-1-(4-hydroxyphenyl)ethan-1-one], the IC50 in test [1] (setting [3]) was 0.0535 µM; in test [2] (setting [4]), less than 0.1 µM.

As for `O=C(Nc1ccc(F)cc1)N1C[C@H]2C[C@@H](c3ccccc3)C[C@H]2C1` [Example 101, N-(4-fluorophenyl)-5-phenyl-octahydrocylcopenta[c] pyrrole-2-carboxamide], the IC50 was 10 µM in test [1] (setting [3]) and greater than 10 µM in test [2] (setting [4]).

With `Oc1ccc([C@@H](O)CN2C[C@@H]3C[C@@](O)(Cc4ccccc4)C[C@@H]3C2)cc1` [Example 136, (3aR,5R,6aS)-5-benzyl-2-((R)-2-hydroxy-2-(4-hydroxyphenyl)ethyl)octa-hydrocyclopenta[c]pyrrol-5-ol], the IC50 in test [1] (setting [3]) is 0.0237 µM; in test [2] (setting [4]), less than 0.1 µM.

Consider `O=C(Nc1ccc(F)cc1F)N1C[C@@H]2C[C@@](O)(c3ccccc3)C[C@@H]2C1` [Example 19, N-(2,4-difluorophenyl)-5-hydroxy-5-phenyl-octahydrocyclopenta[c] pyrrole-2-carboxamide], for which the IC50 is 10 µM in test [1] (setting [3]) and greater than 10 µM in test [2] (setting [4]).

Turning to `O=C(CN1C[C@@H]2C[C@@](O)(CC3CC3)C[C@@H]2C1)c1ccc(O)cn1` [Example 207, 2-((3aR,5r,6aS)-5-(cyclopropylmethyl)-5-hydroxyhexahydrocyclo-penta[c]pyrrol-2(1H)-yl)-1-(5-hydroxypyridin-2-yl)ethanone], the IC50 in test [1] (setting [3]) was 10 µM; in test [2] (setting [4]), greater than 10 µM.

As to `O=C(CN1C[C@@H]2C[C@@](O)(Cc3ccncc3)C[C@@H]2C1)c1ccc(O)cc1` [Example 226, 2-((3aR,5r,6aS)-5-hydroxy-5-(pyridin-4-ylmethyl)hexahydrocyclo-penta[c]pyrrol-2(1H)-yl)-1-(4-hydroxyphenyl)ethanone], the 50% inhibitory concentration (IC50) in test [1] (setting [3]) is 3.89 µM; in test [2] (setting [4]), 1 to 10 µM.
